Active and inactive are the calls of the source. The calls are words filed in the database; no cut-off is given here.
How the values were obtained:
[1] = molecular target: G protein-coupled receptor kinase 3 (Homo sapiens) (UniProt P35626); experiment: Inhibition of human GRK3 at 1 uM using casein as substrate in presence of 33P-ATP by ProQinase assay
[2] = molecular target: Tyrosine-protein kinase JAK1 (Homo sapiens) (UniProt P23458); experiment: Inhibition of human JAK1 at 1 uM using RBER-IRStide as substrate in presence of 33P-ATP by ProQinase assay
[3] = molecular target: Leukocyte tyrosine kinase receptor (Homo sapiens) (UniProt P29376); experiment: Inhibition of human LTK at 1 uM using polyEY as substrate in presence of 33P-ATP by ProQinase assay
[4] = molecular target: Serine/threonine-protein kinase PAK 1 (Homo sapiens) (UniProt Q13153); experiment: Inhibition of human PAK1 at 1 uM using RBER-CHKtide as substrate in presence of 33P-ATP by ProQinase assay
Serine/threonine-protein kinase PAK 1 (Homo sapiens), sequence (Q13153 whole entry): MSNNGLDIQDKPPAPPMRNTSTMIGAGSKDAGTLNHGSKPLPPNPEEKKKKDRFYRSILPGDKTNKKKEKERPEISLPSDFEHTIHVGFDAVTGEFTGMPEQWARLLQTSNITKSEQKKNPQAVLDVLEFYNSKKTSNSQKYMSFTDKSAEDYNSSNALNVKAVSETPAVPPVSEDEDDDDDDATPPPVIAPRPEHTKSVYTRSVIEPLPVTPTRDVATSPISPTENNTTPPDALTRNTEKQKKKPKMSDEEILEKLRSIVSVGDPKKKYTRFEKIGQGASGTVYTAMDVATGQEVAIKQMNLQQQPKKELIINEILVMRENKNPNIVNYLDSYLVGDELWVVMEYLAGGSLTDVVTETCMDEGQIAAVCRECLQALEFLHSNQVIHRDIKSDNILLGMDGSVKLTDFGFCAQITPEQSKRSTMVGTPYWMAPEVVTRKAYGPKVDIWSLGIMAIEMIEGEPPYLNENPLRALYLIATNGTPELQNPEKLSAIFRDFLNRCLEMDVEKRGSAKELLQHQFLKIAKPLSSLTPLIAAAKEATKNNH

[5] = molecular target: TGF-beta receptor type-1 (Homo sapiens) (UniProt P36897); experiment: Inhibition of human TGFBR1 at 1 uM using RBER-CHKtide as substrate in presence of 33P-ATP by ProQinase assay
[6] = molecular target: Diacylglycerol kinase eta (Homo sapiens) (UniProt Q86XP1); experiment: Inhibition of DGKeta (unknown origin) at 1 uM
Diacylglycerol kinase eta (Homo sapiens), sequence (Q86XP1 whole entry): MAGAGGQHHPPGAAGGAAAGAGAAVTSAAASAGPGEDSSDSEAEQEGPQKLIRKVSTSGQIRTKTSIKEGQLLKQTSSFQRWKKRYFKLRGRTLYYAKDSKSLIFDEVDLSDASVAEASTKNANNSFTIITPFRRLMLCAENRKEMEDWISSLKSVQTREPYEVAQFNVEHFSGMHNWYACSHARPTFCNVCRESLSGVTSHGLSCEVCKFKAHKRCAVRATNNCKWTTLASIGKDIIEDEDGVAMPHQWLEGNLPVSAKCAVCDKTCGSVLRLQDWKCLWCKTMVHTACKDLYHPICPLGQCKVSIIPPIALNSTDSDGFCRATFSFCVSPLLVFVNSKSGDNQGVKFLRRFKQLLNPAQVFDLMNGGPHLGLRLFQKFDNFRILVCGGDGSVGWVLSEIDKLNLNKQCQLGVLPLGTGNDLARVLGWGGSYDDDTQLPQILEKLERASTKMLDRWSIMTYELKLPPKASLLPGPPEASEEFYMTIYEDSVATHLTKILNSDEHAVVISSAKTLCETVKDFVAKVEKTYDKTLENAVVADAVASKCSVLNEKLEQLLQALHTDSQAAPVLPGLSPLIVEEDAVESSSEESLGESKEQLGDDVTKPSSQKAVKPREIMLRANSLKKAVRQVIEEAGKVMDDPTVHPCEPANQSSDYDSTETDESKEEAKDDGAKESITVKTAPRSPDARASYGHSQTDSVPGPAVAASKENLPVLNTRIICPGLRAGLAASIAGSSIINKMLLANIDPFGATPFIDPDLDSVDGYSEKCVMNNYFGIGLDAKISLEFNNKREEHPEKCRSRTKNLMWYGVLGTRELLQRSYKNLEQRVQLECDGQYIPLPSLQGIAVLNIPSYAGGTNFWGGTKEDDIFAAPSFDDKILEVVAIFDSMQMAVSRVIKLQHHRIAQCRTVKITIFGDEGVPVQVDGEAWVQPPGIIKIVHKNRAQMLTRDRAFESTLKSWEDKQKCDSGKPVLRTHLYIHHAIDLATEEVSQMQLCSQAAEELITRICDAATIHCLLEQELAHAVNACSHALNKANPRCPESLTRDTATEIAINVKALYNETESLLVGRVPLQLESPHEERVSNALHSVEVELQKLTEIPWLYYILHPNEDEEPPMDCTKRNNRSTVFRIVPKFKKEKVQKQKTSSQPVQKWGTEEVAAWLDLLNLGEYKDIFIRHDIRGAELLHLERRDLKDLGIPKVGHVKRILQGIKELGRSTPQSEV

[7] = molecular target: RAC-beta serine/threonine-protein kinase (Homo sapiens) (UniProt P31751); experiment: Inhibition of human AKT2 at 1 uM using RBER-GSK3 as substrate in presence of 33P-ATP by ProQinase assay
[8] = molecular target: Casein kinase I isoform epsilon (Homo sapiens) (UniProt P49674); experiment: Inhibition of human CK1epsilon at 1 uM using casein as substrate in presence of 33P-ATP by ProQinase assay
Casein kinase I isoform epsilon (Homo sapiens), sequence (P49674 whole entry, looked up, canonical isoform): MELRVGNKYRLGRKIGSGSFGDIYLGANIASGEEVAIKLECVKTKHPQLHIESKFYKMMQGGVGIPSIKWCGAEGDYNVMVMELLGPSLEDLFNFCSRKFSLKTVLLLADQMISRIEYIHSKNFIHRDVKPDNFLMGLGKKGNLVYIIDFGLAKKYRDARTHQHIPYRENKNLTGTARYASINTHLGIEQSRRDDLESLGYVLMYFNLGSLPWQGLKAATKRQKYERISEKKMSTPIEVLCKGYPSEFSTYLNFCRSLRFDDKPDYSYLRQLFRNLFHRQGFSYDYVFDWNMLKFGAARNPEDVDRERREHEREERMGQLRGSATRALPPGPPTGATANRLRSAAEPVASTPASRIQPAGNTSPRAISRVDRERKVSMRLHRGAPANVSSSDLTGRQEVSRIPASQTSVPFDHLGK

[9] = molecular target: Homeodomain-interacting protein kinase 1 (Homo sapiens) (UniProt Q86Z02); experiment: Inhibition of human HIPK1 at 1 uM using RBER-CHKtide as substrate in presence of 33P-ATP by ProQinase assay
[10] = molecular target: Protein kinase C beta type (Homo sapiens) (UniProt P05771); experiment: Inhibition of human PKCbeta2 at 1 uM using 3xChocktide-PKC as substrate in presence of 33P-ATP by ProQinase assay
Protein kinase C beta type (Homo sapiens), sequence (P05771 2-671 limits assumed): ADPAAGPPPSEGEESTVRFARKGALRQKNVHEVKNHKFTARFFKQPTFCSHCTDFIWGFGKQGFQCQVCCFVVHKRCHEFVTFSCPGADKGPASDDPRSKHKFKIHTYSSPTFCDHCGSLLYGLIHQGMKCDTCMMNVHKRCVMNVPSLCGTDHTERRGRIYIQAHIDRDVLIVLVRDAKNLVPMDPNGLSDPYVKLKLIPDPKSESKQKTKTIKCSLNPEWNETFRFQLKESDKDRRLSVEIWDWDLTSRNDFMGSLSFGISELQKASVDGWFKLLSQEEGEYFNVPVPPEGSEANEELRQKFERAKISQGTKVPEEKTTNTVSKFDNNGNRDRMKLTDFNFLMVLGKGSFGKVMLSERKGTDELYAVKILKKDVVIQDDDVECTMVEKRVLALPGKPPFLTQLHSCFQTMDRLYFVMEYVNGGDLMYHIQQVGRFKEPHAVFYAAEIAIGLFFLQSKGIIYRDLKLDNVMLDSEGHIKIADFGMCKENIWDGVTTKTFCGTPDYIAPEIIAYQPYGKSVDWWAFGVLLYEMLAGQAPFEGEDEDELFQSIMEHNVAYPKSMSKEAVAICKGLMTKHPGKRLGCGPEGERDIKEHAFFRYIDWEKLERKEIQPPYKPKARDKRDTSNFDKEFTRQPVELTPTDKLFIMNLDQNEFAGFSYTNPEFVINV

[11] = molecular target: PI3-kinase p110-alpha/p85-alpha (Homo sapiens) (UniProt P27986+P42336); experiment: Inhibition of recombinant human N-terminal His6-tagged PI3Kalpha (2 to 1068 residues)/p85A (1 to 724 residues) expressed in baculovirus expression system at 1 uM using diC8 PIP2 as substrate incubated for 80 mins by ADP-Glo assay
[12] = molecular target: Cytoplasmic tyrosine-protein kinase BMX (Homo sapiens) (UniProt P51813); experiment: Inhibition of human BMX at 1 uM using polyEy as substrate in presence of 33P-ATP by ProQinase assay
[13] = molecular target: BDNF/NT-3 growth factors receptor (Homo sapiens) (UniProt Q16620); experiment: Inhibition of human TRKB at 1 uM using polyEY as substrate in presence of 33P-ATP by ProQinase assay
[14] = molecular target: Serine/threonine-protein kinase TBK1 (Homo sapiens) (UniProt Q9UHD2); experiment: Inhibition of recombinant human N-terminal GST-tagged TBK1 (1 to 729 residues) expressed in baculovirus infected Sf21 cells assessed as remaining activity at 1 uM using KKKKERLLDDRHDSGLDSMKDEE as substrate incubated for 30 mins in presence of [gamma-33P]ATP by filter binding method relative to control
[15] = molecular target: Serine/threonine-protein kinase Nek2 (Homo sapiens) (UniProt P51955); experiment: Inhibition of human NEK2 at 1 uM using RB-CTF as substrate in presence of 33P-ATP by ProQinase assay
[16] = molecular target: Serine/threonine-protein kinase 26 (Homo sapiens) (UniProt Q9P289); experiment: Inhibition of recombinant human N-terminal His6-tagged MST4 (1 to 416 residues) expressed in baculovirus infected Sf21 cells assessed as remaining activity at 1 uM using MBP as substrate incubated for 30 mins in presence of [gamma-33P]ATP by filter binding method relative to control
Serine/threonine-protein kinase 26 (Homo sapiens), sequence (Q9P289 2-416 limits assumed): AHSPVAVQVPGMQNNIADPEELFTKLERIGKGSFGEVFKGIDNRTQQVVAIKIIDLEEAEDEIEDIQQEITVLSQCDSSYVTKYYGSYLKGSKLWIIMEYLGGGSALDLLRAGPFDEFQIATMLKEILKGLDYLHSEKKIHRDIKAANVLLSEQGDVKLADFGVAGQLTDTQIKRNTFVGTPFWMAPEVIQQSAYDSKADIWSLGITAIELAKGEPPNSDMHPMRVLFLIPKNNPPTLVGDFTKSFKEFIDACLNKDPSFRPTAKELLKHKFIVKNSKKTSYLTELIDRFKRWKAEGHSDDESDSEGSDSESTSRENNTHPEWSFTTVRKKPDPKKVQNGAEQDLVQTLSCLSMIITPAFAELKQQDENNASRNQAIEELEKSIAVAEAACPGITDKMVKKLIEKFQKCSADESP

[17] = molecular target: Dual specificity mitogen-activated protein kinase kinase 1 (Homo sapiens) (UniProt Q02750); experiment: Inhibition of human MEK1 at 1 uM using ERK2-KR as substrate in presence of 33P-ATP by ProQinase assay
Dual specificity mitogen-activated protein kinase kinase 1 (Homo sapiens), sequence (Q02750 whole entry, the tested form may be a part): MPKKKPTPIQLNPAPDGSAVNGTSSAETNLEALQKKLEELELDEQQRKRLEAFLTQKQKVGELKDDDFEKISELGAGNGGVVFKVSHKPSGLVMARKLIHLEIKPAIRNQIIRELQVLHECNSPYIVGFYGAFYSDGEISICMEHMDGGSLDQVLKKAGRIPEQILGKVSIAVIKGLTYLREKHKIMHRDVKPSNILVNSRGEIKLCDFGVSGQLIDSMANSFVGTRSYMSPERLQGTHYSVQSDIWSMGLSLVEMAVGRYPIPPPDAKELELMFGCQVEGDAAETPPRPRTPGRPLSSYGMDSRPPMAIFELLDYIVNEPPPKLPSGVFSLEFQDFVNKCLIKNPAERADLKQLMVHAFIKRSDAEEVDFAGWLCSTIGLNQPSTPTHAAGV

[18] = molecular target: Mitogen-activated protein kinase 15 (Homo sapiens) (UniProt Q8TD08); experiment: Inhibition of recombinant human N-terminal His6-tagged ERK8 (2 to 544 residues) expressed in baculovirus infected Sf21 cells assessed as remaining activity at 1 uM using MBP as substrate incubated for 30 mins in presence of [gamma-33P]ATP by filter binding method relative to control
[19] = molecular target: Insulin receptor (Homo sapiens) (UniProt P06213); experiment: Inhibition of recombinant human N-terminal His6-tagged IR (1001 to 1382 residues) expressed in baculovirus infected Sf21 cells assessed as remaining activity at 1 uM using KKSRGDYMTMQIG as substrate incubated for 30 mins in presence of [gamma-33P]ATP by filter binding method relative to control
[20] = molecular target: T1, 3-phosphoinositide-dependent protein kinase 1 (Homo sapiens) (UniProt O15530); experiment: Inhibition of recombinant human His6-tagged PDK1 (52 to 556 residues) expressed in baculovirus infected Sf21 cells assessed as remaining activity at 1 uM using PDKtide as substrate incubated for 30 mins in presence of [gamma-33P]ATP by filter binding method relative to control
T1 sequence (whole entry): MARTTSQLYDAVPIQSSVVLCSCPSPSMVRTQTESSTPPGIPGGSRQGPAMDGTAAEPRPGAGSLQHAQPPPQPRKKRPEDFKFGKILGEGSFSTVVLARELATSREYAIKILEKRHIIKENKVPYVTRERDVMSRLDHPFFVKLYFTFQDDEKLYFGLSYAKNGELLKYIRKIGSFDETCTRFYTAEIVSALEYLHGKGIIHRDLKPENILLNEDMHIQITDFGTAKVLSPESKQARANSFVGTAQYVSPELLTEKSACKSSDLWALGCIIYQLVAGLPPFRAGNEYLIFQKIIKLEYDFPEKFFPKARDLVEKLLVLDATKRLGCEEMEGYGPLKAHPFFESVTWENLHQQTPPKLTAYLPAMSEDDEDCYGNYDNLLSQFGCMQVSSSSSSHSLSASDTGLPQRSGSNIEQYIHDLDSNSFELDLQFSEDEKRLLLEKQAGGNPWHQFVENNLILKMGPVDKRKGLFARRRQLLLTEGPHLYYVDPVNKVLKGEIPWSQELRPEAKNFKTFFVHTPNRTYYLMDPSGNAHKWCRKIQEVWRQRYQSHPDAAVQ

[21] = molecular target: STE20-like serine/threonine-protein kinase (Homo sapiens) (UniProt Q9H2G2); experiment: Inhibition of human SLK at 1 uM using RB-S6P as substrate in presence of 33P-ATP by ProQinase assay
[22] = molecular target: Interleukin-1 receptor-associated kinase 4 (Homo sapiens) (UniProt Q9NWZ3); experiment: Inhibition of recombinant human N-terminal GST-tagged IRAK4 (140 to 460 residues) expressed in Escherichia coli assessed as remaining activity at 1 uM using MBP as substrate incubated for 30 mins in presence of [gamma-33P]ATP by filter binding method relative to control
Interleukin-1 receptor-associated kinase 4 (Homo sapiens), sequence (Q9NWZ3 whole entry, the tested form may be a part): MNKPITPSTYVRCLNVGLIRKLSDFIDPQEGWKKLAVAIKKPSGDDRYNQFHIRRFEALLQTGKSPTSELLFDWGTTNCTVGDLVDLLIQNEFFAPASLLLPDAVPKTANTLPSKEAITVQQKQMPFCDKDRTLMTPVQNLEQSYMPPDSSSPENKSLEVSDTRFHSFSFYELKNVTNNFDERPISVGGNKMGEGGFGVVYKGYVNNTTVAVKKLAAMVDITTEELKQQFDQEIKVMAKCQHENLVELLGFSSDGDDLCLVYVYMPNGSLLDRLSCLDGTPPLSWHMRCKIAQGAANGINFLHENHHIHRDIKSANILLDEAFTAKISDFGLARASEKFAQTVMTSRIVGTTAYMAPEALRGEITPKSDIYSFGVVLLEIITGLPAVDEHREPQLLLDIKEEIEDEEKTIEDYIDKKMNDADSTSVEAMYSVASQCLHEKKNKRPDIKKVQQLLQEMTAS

G protein-coupled receptor kinase 3 (Homo sapiens), sequence (P35626 whole entry): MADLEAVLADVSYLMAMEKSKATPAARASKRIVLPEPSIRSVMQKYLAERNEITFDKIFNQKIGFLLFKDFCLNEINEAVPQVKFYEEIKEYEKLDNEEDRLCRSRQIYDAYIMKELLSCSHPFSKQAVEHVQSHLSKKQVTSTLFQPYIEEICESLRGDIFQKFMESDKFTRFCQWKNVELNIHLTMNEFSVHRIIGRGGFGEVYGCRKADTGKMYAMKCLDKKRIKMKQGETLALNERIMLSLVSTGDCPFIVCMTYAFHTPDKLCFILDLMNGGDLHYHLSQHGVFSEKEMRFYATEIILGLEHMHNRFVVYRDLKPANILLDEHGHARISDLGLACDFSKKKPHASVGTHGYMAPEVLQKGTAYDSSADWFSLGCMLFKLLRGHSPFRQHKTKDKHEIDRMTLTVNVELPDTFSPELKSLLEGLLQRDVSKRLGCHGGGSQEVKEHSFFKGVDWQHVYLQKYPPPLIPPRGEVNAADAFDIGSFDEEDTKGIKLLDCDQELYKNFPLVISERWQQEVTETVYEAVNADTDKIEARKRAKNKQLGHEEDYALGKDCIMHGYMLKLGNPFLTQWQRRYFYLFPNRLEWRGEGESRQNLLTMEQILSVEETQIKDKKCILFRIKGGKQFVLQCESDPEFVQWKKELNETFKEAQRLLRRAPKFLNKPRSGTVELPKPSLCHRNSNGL

Structure (SMILES): CC(C)(O)CNc1ncc(-c2ccnc(Nc3ccnc(Cl)c3)n2)c(CC2CC2)n1
- inhibition [1]: inactive
- inhibition [2]: inactive
- inhibition [3]: inactive
- inhibition [4]: inactive
- inhibition [5]: inactive
- inhibition [6]: inactive
- inhibition [7]: inactive
- inhibition [8]: inactive
- inhibition [9]: inactive
- inhibition [10]: inactive
- inhibition [11]: inactive
- inhibition [12]: inactive
- inhibition [13]: inactive
- Activity [14]: 125%
- inhibition [15]: inactive
- Activity [16]: 108%
- inhibition [17]: inactive
- Activity [18]: 36%
- Activity [19]: 109%
- Activity [20]: 105%
- inhibition [21]: inactive
- Activity [22]: 133%
